The results in this text go back to patent US10351575B2, “Bicyclic urea, thiourea, guanidine and cyanoguanidine compounds useful for the treatment of pain” (Array BioPharma Inc., priority 2012, dated 2019).

Molecules are shown by their SMILES. pIC50: −log10 of the molar value.

For this experiment, the target named is His-tagged recombinant human TrkA (Homo sapiens (Human), UniProt P04629). Briefly: TrkA LanthaScreen Eu Kinase Binding Assay. Particulars: averaged IC50; TR-FRET binding, 60 min, 22° C.; read-out: TrkA Enzyme IC50. Put shortly: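 Three-fold compound dilutions (2% DMSO final) were incubated 60 min at 22° C. with 5 nM His-TrkA cytoplasmic domain, tracer 236 (4 nM), biotinylated anti-His (2 nM) and europium streptavidin (2 nM) in MOPS pH 7.5 buffer. Emission ratio 665/615 gave percent of control; four-parameter fit yielded IC50.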
Chain of His-tagged recombinant human TrkA (P04629 440-796): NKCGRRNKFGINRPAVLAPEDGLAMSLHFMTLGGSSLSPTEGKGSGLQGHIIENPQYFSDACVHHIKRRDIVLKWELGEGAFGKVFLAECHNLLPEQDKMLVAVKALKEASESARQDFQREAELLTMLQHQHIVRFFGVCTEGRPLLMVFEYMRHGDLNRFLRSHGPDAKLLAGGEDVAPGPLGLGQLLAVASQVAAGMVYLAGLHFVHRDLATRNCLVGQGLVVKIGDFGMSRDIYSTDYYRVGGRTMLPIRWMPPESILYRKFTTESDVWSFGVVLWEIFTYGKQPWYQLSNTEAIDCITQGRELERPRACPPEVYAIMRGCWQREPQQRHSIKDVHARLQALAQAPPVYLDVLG
In general terms: In TR-FRET formats the signal depends on donor and acceptor labels being close together.
As to `Cc1c(-c2cnn(C)c2)nn(-c2ccccc2)c1NC(=O)N[C@@H]1c2ccc(F)cc2C(C)(C)C[C@H]1O` [Example 89, 1-(1′,4-dimethyl-1-phenyl-1H,1′H-[3,4′-bipyrazol]-5-yl)-3-((1,2-trans)-6-fluoro-2-hydroxy-4,4-dimethyl-1,2,3,4-tetrahydronaphthalen-1-yl)urea], the pIC50 is over 7.00.

For the molecule `Cc1c(-c2ccc(=O)n(C)c2)nn(-c2ccccc2)c1NC(=O)N[C@@H]1c2ccc(F)cc2C(C)(C)C[C@H]1O` [Example 90], the pIC50 is over 7.00.

For the molecule `CNC(=O)c1nn(-c2ccccc2)c(NC(=O)N[C@@H]2c3cc(F)ccc3C(C)(C)C[C@H]2O)c1C` [Example 91, 5-(3-((1,2-trans)-7-fluoro-2-hydroxy-4,4-dimethyl-1,2,3,4-tetrahydronaphthalen-1-yl)ureido)-N,4-dimethyl-1-phenyl-1H-pyrazole-3-carboxamide], the pIC50 was over 7.00.

Regarding `Cc1c(-c2cnn(C)c2)nn(-c2ccccc2)c1NC(=O)N[C@@H]1c2cc(F)ccc2C(C)(C)C[C@H]1O` [Example 92, 1-(1′,4-dimethyl-1-phenyl-1H,1′H-[3,4′-bipyrazol]-5-yl)-3-((1,2-trans)-7-fluoro-2-hydroxy-4,4-dimethyl-1,2,3,4-tetrahydronaphthalen-1-yl)urea], the pIC50 was over 7.00.

As to `Cc1c(-c2ccc(=O)n(C)c2)nn(-c2ccccc2)c1NC(=O)N[C@@H]1c2cc(F)ccc2C(C)(C)C[C@H]1O` [Example 93, 1-((1,2-trans)-7-fluoro-2-hydroxy-4,4-dimethyl-1,2,3,4-tetrahydronaphthalen-1-yl)-3-(4-methyl-3-(1-methyl-6-oxo-1,6-dihydropyridin-3-yl)-1-phenyl-1H-pyrazol-5-yl)urea], the pIC50 is over 7.00.

`COCc1ccc2c(c1)C(NC(=O)Nc1c(C)c(=O)[nH]n1-c1ccccc1)CN(CC(F)(F)F)C2C` (stereo not drawn) [Example 96, 1-(6-(methoxymethyl)-1-methyl-2-(2,2,2-trifluoroethyl)-1,2,3,4-tetrahydroisoquinolin-4-yl)-3-(4-methyl-5-oxo-2-phenyl-2,5-dihydro-1H-pyrazol-3-yl)urea]: the negative logarithm of the IC50 (pIC50) was over 7.00.

In the case of `Cc1nn(-c2ccccc2)c(NC(=O)N[C@@H]2c3cc(CO)ccc3C(C)(C)C[C@H]2O)c1C` [Example 100], the negative-log IC50 (pIC50) is over 7.00.

For `Cc1c(-c2cnn(C)c2)nn(-c2ccccc2)c1NC(=O)N[C@H]1CCCc2cc(F)ccc21` [Example 103, (S)-1-(1′,4-dimethyl-1-phenyl-1H,1′H-[3,4′-bipyrazol]-5-yl)-3-(6-fluoro-1,2,3,4-tetrahydronaphthalen-1-yl)urea], the pIC50 was over 7.00.

For the molecule `COCc1ccc2c(c1)C(NC(=O)Nc1c(C)c(-c3cnn(C)c3)nn1-c1ccccc1)CN(CC(F)(F)F)C2C` (stereo not drawn) [Example 109, 1-(1′,4-dimethyl-1-phenyl-1H,1′H-[3,4′-bipyrazol]-5-yl)-3-(6-(methoxymethyl)-1-methyl-2-(2,2,2-trifluoroethyl)-1,2,3,4-tetrahydroisoquinolin-4-yl)urea], the pIC50 is over 7.00.

As for `COCc1ccc2c(c1)C(NC(=O)Nc1c(C)c(C(N)=O)nn1-c1ccccc1)CN(CC(F)(F)F)C2C` (stereo not drawn) [Example 110, 5-(3-(6-(methoxymethyl)-1-methyl-2-(2,2,2-trifluoroethyl)-1,2,3,4-tetrahydroisoquinolin-4-yl)ureido)-4-methyl-1-phenyl-1H-pyrazole-3-carboxamide], the pIC50 is over 7.00.

For `COCc1ccc2c(c1)C(NC(=O)Nc1c(C)c(-c3cn(C)cn3)nn1-c1ccccc1)CN(CC(F)(F)F)C2C` (stereo not drawn) [Example 111, 1-(6-(methoxymethyl)-1-methyl-2-(2,2,2-trifluoroethyl)-1,2,3,4-tetrahydroisoquinolin-4-yl)-3-(4-methyl-3-(1-methyl-1H-imidazol-4-yl)-1-phenyl-1H-pyrazol-5-yl)urea], the pIC50 was over 7.00.

In the case of `Cc1c(-c2cnn(C)c2)nn(-c2ccccc2)c1NC(=O)NC1CCSc2ccc(Br)cc21` (stereo not drawn) [Example 112, 1-(6-bromothiochroman-4-yl)-3-(1′,4-dimethyl-1-phenyl-1H,1′H-[3,4′-bipyrazol]-5-yl)urea], the pIC50 is over 7.00.

Consider `Cc1c(-c2cnn(C)c2)nn(-c2ccccc2)c1NC(=O)NC1CCS(=O)(=O)c2ccc(Br)cc21` (stereo not drawn) [Example 113, 1-(6-bromo-1,1-dioxidothiochroman-4-yl)-3-(1′,4-dimethyl-1-phenyl-1H,1′H-[3,4′-bipyrazol]-5-yl)urea], for which the pIC50 is 6.00 to 7.00.

Turning to `Cc1c(-c2cnn(C)c2)nn(-c2ccccc2)c1NC(=O)NC1CSCc2ccc(Br)cc21` (stereo not drawn) [Example 114, 1-(6-bromoisothiochroman-4-yl)-3-(1′,4-dimethyl-1-phenyl-1H,1′H-[3,4′-bipyrazol]-5-yl)urea], the pIC50 was over 7.00.

In the case of `Cc1c(-c2cnn(C)c2)nn(-c2ccccc2)c1NC(=O)NC1CS(=O)(=O)Cc2ccc(Br)cc21` (stereo not drawn) [Example 115, 1-(6-bromo-2,2-dioxidoisothiochroman-4-yl)-3-(1′,4-dimethyl-1-phenyl-1H,1′H-[3,4′-bipyrazol]-5-yl)urea], the pIC50 was over 7.00.

Take `Cc1c(-c2cnn(C)c2)nn(-c2ccccc2)c1NC(=O)NC1CN(CC(F)(F)F)C(=O)c2ccccc21` (stereo not drawn) [Example 116, 1-(1′,4-dimethyl-1-phenyl-1H,1′H-[3,4′-bipyrazol]-5-yl)-3-(1-oxo-2-(2,2,2-trifluoroethyl)-1,2,3,4-tetrahydroisoquinolin-4-yl)urea]: the pIC50 is over 7.00.

For `Cc1ncc(-c2nn(-c3ccccc3)c(NC(=O)N[C@@H]3c4ccccc4C(C)(C)C[C@H]3O)c2C)cn1` [Example 117, 1-((1,2-trans)-2-hydroxy-4,4-dimethyl-1,2,3,4-tetrahydronaphthalen-1-yl)-3-(4-methyl-3-(2-methylpyrimidin-5-yl)-1-phenyl-1H-pyrazol-5-yl)urea], the negative logarithm of the IC50 (pIC50) is over 7.00.

For `CNC(=O)c1nn(-c2ccccc2)c(NC(=O)NC2CN(CC(F)(F)F)C(C)c3ccc(COC)cc32)c1C` (stereo not drawn) [Example 129, 5-(3-(6-(methoxymethyl)-1-methyl-2-(2,2,2-trifluoroethyl)-1,2,3,4-tetrahydroisoquinolin-4-yl)ureido)-N,4-dimethyl-1-phenyl-1H-pyrazole-3-carboxamide], the pIC50 was over 7.00.

In the case of `Cc1ncc(-c2nn(-c3ccccc3)c(NC(=O)NC3CN(CC(F)(F)F)C(=O)c4ccccc43)c2C)cn1` (stereo not drawn) [Example 130, 1-(4-methyl-3-(2-methylpyrimidin-5-yl)-1-phenyl-1H-pyrazol-5-yl)-3-(1-oxo-2-(2,2,2-trifluoroethyl)-1,2,3,4-tetrahydroisoquinolin-4-yl)urea], the pIC50 is over 7.00.

Regarding `Cc1nn(-c2ccccc2)c(NC(=O)NC2CN(CC(F)(F)F)C(=O)c3ccccc32)c1C` (stereo not drawn) [Example 131, 1-(3,4-dimethyl-1-phenyl-1H-pyrazol-5-yl)-3-(1-oxo-2-(2,2,2-trifluoroethyl)-1,2,3,4-tetrahydroisoquinolin-4-yl)urea], the negative-log IC50 (pIC50) is over 7.00.

For `Cc1c(OC2CN3CCC2CC3)nn(-c2ccccc2)c1NC(=O)N[C@@H]1c2ccccc2C(C)(C)C[C@H]1O` (stereo partly drawn) [Example 132, 1-((1R,2R)-2-hydroxy-4,4-dimethyl-1,2,3,4-tetrahydronaphthalen-1-yl)-3-(4-methyl-1-phenyl-3-(quinuclidin-3-yloxy)-1H-pyrazol-5-yl)urea], the negative logarithm of the IC50 (pIC50) was over 7.00.

Broadly, the pIC50 is the IC50 on a negative log10 scale, so that one unit is a factor of ten.
